How the values were obtained:
Format in all cases: functional
[1] = system: U-251; experiment: Cytotoxicity against Homo sapiens (human) U251 cells after 48 hr by SRB assay; details: U-251, 48 h
[2] = system: DU-145; experiment: Cytotoxicity against Homo sapiens (human) DU145 cells after 48 hr by SRB assay; details: DU-145, 48 h
[3] = system: Hs-578T; experiment: Cytotoxicity against Homo sapiens (human) Hs578T cells after 48 hr by SRB assay
[4] = system: HT-29; experiment: Cytotoxicity against Homo sapiens (human) HT-29 cells after 48 hr by SRB assay; details: HT-29, 48 h
[5] = system: MOLT-4; experiment: Cytotoxicity against Homo sapiens (human) MOLT4 cells after 48 hr by SRB assay; details: MOLT-4, 48 h
[6] = system: A549; experiment: Cytotoxicity against Homo sapiens (human) A549 cells after 48 hr by SRB assay; details: A549, 48 h
[7] = system: OVCAR-4; experiment: Cytotoxicity against Homo sapiens (human) OVCAR4 cells after 48 hr by SRB assay; details: OVCAR-4, 48 h
[8] = system: OVCAR-8; experiment: Cytotoxicity against Homo sapiens (human) OVCAR8 cells after 48 hr by SRB assay; details: OVCAR-8, 48 h
[9] = system: TK-10; experiment: Cytotoxicity against Homo sapiens (human) TK10 cells after 48 hr by SRB assay; details: TK-10, 48 h
[10] = system: RPMI-8226; experiment: Cytotoxicity against Homo sapiens (human) RPMI8226 cells after 48 hr by SRB assay; details: RPMI-8226, 48 h
[11] = system: SN12C; experiment: Cytotoxicity against Homo sapiens (human) SN12C cells after 48 hr by SRB assay
[12] = system: T47D; experiment: Cytotoxicity against Homo sapiens (human) T47D cells after 48 hr by SRB assay
[13] = system: K562; experiment: Cytotoxicity against Homo sapiens (human) K562 cells after 48 hr by SRB assay; details: K562, 48 h
[14] = system: ACHN; experiment: Cytotoxicity against Homo sapiens (human) ACHN cells after 48 hr by SRB assay
[15] = system: CAKI-1; experiment: Cytotoxicity against Homo sapiens (human) Caki1 cells after 48 hr by SRB assay; details: CAKI-1, 48 h
[16] = system: SNB-75; experiment: Cytotoxicity against Homo sapiens (human) SNB75 cells after 48 hr by SRB assay; details: SNB-75, 48 h
[17] = system: NCI-H460; experiment: Cytotoxicity against Homo sapiens (human) NCI-H460 cells assessed as cellular growth after 48 hr by Alamar blue assay; parameters: concentration or dose not given beside the values
[18] = system: NCI-H226; experiment: Cytotoxicity against Homo sapiens (human) NCI-H226 cells after 48 hr by SRB assay; details: NCI-H226, 48 h
[19] = Cytotoxicity against Homo sapiens (human) NCI-ADR-RES cells after 48 hr by SRB assay
[20] = system: HCT-116; experiment: Cytotoxicity against Homo sapiens (human) HCT116 cells after 48 hr by SRB assay; details: HCT-116, 48 h
[21] = system: NCI-H23; experiment: Cytotoxicity against Homo sapiens (human) NCI-H23 cells after 48 hr by SRB assay; details: NCI-H23, 48 h

Compound | GI50 [1] | GI50 [2] | GI50 [3] | GI50 [4] | GI50 [5] | GI50 [6] | GI50 [7] | GI50 [8] | GI50 [9] | GI50 [10] | GI50 [11] | GI50 [12] | GI50 [13] | GI50 [14] | GI50 [15] | GI50 [16] | Activity [17] | GI50 [18] | GI50 [19] | GI50 [21] | also measured
NS(=O)(=O)c1ccc(-n2nc3c(c2-c2cccs2)Cc2ccccc2-3)cc1 | 12.3 µM | 24.1 µM | 16.1 µM | 22.9 µM | 1.43 µM | 20.7 µM | 29.9 µM | 20.5 µM | 12.2 µM | 6.68 µM | 12.2 µM | 12.8 µM | 0.86 µM | 11.7 µM | 10.1 µM | 25.5 µM | <=32% | 4.9 µM | 12.4 µM | 11.9 µM | GI50 [20]: 7.67 µM
NS(=O)(=O)c1ccc(N2N=C3c4ccccc4CC3C2c2cccs2)cc1 (centres undefined) | 19.4 µM | 14.5 µM | 28.7 µM | 26.1 µM | 18.9 µM | 13.1 µM | > 100 µM | 15.3 µM | 13.2 µM | 32.3 µM | 23.5 µM | 66.9 µM | 57.5 µM | 19.8 µM | 19.6 µM | 31.1 µM | <=32% | – | 17.1 µM | 20.3 µM | GI50 [20]: 10.7 µM
O=C(Nc1ccccc1)NS(=O)(=O)c1ccc(N2N=C3c4ccccc4CC3C2c2cccnc2)cc1 (centres undefined) | 31.9 µM | 36.6 µM | 40.7 µM | 37.9 µM | 11.6 µM | 29.2 µM | > 100 µM | 27 µM | 11.7 µM | 27.1 µM | 30.4 µM | 93 µM | 26.6 µM | 23.6 µM | 26.4 µM | > 100 µM | <=32% | 23.7 µM | 64.4 µM | 20.8 µM | GI50 [20]: 15.3 µM
O=C(NC1CCCCC1)NS(=O)(=O)c1ccc(-n2nc3c(c2-c2cccs2)Cc2ccccc2-3)cc1 | 25.6 µM | 31.9 µM | 37.5 µM | 34.3 µM | 49.9 µM | 28 µM | 27 µM | 25.3 µM | 17.5 µM | 10.7 µM | 21.5 µM | 39.7 µM | 10 µM | 17.3 µM | 16 µM | 52.2 µM | <=32% | 21.3 µM | 20.4 µM | 12.8 µM | GI50 [20]: 31.6 µM
O=C(Nc1ccccc1)NS(=O)(=O)c1ccc(-n2nc3c(c2-c2cccs2)Cc2ccccc2-3)cc1 | 22.9 µM | 28.6 µM | 16.8 µM | 26.7 µM | 15.5 µM | 20.8 µM | 34.9 µM | 28.3 µM | 4.99 µM | 5.49 µM | 19.9 µM | 37.9 µM | 14 µM | 17.6 µM | 11.1 µM | 70.4 µM | <=32% | 19.2 µM | 16.1 µM | 12.2 µM | GI50 [20]: 9.13 µM
O=S(=O)(NC(=S)Nc1ccccc1)c1ccc(N2N=C3c4ccccc4CC3C2c2cccs2)cc1 (centres undefined) | 26.2 µM | 17.8 µM | 20.9 µM | 36.2 µM | 17.5 µM | 15.7 µM | 69.8 µM | 39 µM | 12.2 µM | 30.3 µM | 21.4 µM | > 100 µM | 31.3 µM | 26.4 µM | 18.5 µM | 71.9 µM | <=32% | 27.2 µM | 19.3 µM | 17.6 µM | GI50 [20]: 15.1 µM
O=C(NC(=S)NS(=O)(=O)c1ccc(N2N=C3c4ccccc4CC3C2c2cccs2)cc1)c1ccccc1 (centres undefined) | 20.1 µM | 28.3 µM | 16.1 µM | 46 µM | 26.2 µM | 20.3 µM | 87.6 µM | 20.3 µM | – | 29.7 µM | 26 µM | 69.6 µM | – | > 100 µM | 26.1 µM | > 100 µM | <=32% | – | 18.8 µM | – | –
O=C1CS/C(=N\S(=O)(=O)c2ccc(N3N=C4c5ccccc5CC4C3c3cccs3)cc2)N1C(=O)c1ccccc1 (centres undefined) | 36.3 µM | 38.2 µM | 25.3 µM | 76 µM | 22.2 µM | 70.5 µM | > 100 µM | 45.7 µM | 49.6 µM | 34 µM | 90.7 µM | > 100 µM | – | 23.6 µM | 39 µM | > 100 µM | <=32% | 58.5 µM | > 100 µM | 25.1 µM | GI50 [20]: 22 µM
O=S(=O)(/N=c1\scc(-c2ccccc2)n1-c1ccccc1)c1ccc(N2N=C3c4ccccc4CC3C2c2cccs2)cc1 (centres undefined) | 31.2 µM | > 100 µM | 60.6 µM | 82 µM | 19 µM | 57 µM | > 100 µM | 47.2 µM | 32.7 µM | 51 µM | 94.3 µM | > 100 µM | > 100 µM | 42.5 µM | 73 µM | > 100 µM | <=32% | 78.9 µM | > 100 µM | 68 µM | –
O=C(c1ccccc1)n1c(-c2ccccc2)cs/c1=N\S(=O)(=O)c1ccc(N2N=C3c4ccccc4CC3C2c2cccs2)cc1 (centres undefined) | 32 µM | 47 µM | 17 µM | 73.3 µM | 30.5 µM | 39.5 µM | > 100 µM | 42.9 µM | 30.5 µM | 32.3 µM | 44.4 µM | > 100 µM | 27.6 µM | 43.8 µM | 38 µM | > 100 µM | <=32% | 30.1 µM | > 100 µM | 13.1 µM | GI50 [20]: 30.5 µM
O=C1CCS/C(=N\S(=O)(=O)c2ccc(N3N=C4c5ccccc5CC4C3c3cccs3)cc2)N1c1ccccc1 (centres undefined) | 14.4 µM | > 100 µM | 60.6 µM | 37 µM | 47 µM | 14.4 µM | 49.3 µM | 19.2 µM | 32.7 µM | 18.1 µM | 94.3 µM | > 100 µM | > 100 µM | 42.5 µM | 73 µM | 30.2 µM | <=32% | 26.5 µM | > 100 µM | 16.7 µM | GI50 [20]: 20.3 µM
O=C1CCS/C(=N\S(=O)(=O)c2ccc(N3N=C4c5ccccc5CC4C3c3cccs3)cc2)N1C(=O)c1ccccc1 (centres undefined) | 4.5 µM | 23.2 µM | 2.85 µM | 39.6 µM | 50.4 µM | 10.6 µM | > 100 µM | 0.81 µM | 24.5 µM | 58.6 µM | 16.7 µM | > 100 µM | 26.4 µM | 5.18 µM | 26.8 µM | > 100 µM | <=32% | 15.9 µM | 32.9 µM | 17.2 µM | GI50 [20]: 10 µM
O=C1CS/C(=N\S(=O)(=O)c2ccc(N3N=C4c5ccccc5CC4C3c3cccs3)cc2)N(c2ccccc2)C1 (centres undefined) | 28 µM | 30.7 µM | 20.5 µM | 61 µM | 0.01 µM | 47.2 µM | > 100 µM | 25.4 µM | – | 31 µM | 34.3 µM | 69.2 µM | 10.3 µM | 22.1 µM | 74.5 µM | > 100 µM | <=32% | 22.3 µM | > 100 µM | 24.2 µM | GI50 [20]: 12.5 µM

Source: ChEMBL document CHEMBL3046832, “Synthesis of some sulfonamides, disubstituted sulfonylureas or thioureas and some structurally related variants. A class of promising antitumor agents” (2007)
